Measured values from patent US20260021132A1, “PHARMACOLOGICAL THERAPY FOR MITOCHONDRIAL DNA DEPLETION DELETIONS SYNDROME INVOLVING MUTATIONS IN THE GUK1 GENE” (The Trustees of Columbia University in the City of New York, priority 2023, published 2026).

Tests used:
GUK1 patient fibroblasts = experiment: mtDNA content of proliferating GUK1 patient fibroblasts (quantitative Real-Time PCR, mtDNA/nDNA); format: cell-based, human; conditions: three different GUK1 patient proliferating fibroblasts, FIG. 3B
Experimental: Levels of mtDNA were measured by quantitative Real-Time PCR (in triplicate) and expressed as mtDNA/nDNA (12S/RNase P) and levels are expressed as percent relative to control fibroblast mtDNA. * indicates p<0.05. P values determined by Mann-Whitney U test. Initially, GUK1 mutant patient fibroblasts will be supplemented with dG. Based on published reports of deoxynucleoside supplementation for rescue of other models of mtDNA depletion, fibroblast culture media will be supplemented with dG at concentrations ranging from 1 μM to 400 μM (Camara, et al. 2014; Pontarin, et al. 2012; […], et al. 2003; Bulst, et al. 2012). Throughout each experiment, fibroblasts will be actively proliferating to emphasize use of the de novo dNTP synthesis pathway. The primary outcome measure will be mtDNA copy number comparing untreated and dG-supplemented fibroblasts. To complement the mtDNA results, it will be determined whether the mitochondrial dGTP concentration increases with dG supplementation by measuring mitochondrial dNTP pools. As a functional measure of mitochondrial rescue in treated fibroblasts, we will also measure OxPhos activity.

[1] = mice; cited from earlier work
[2] = tested on: dGK-deficient fibroblasts; conditions: cited from earlier work

| Structure (SMILES) | mtDNA as compared to untreated (GUK1 patient fibroblasts; dG at 1 μM alone) | mtDNA as compared to untreated (GUK1 patient fibroblasts; forodesine at 1 mM alone) | circulating dG [1] | efficacy of purine supplementation [2] |
| --- | --- | --- | --- | --- |
| Nc1nc2c(ncn2[C@H]2C[C@H](O)[C@@H](CO)O2)c(=O)[nH]1 [dG, deoxyguanosine] | increase | – | – | – |
| O=c1[nH]cnc2c([C@@H]3N[C@H](CO)[C@@H](O)[C@H]3O)c[nH]c12 [forodesine] | – | increase | can increase circulating dG | enhances the efficacy of purine supplementation |
